For data set [1], the system named is E18 primary hippocampal neurons. Description: Neuroprotection from HIV-1 Tat: hippocampal neurons in microfluidic chambers exposed to Tat-treated BV-2 microglia. It counts as cell-based. The settings on record: BV-2 microglia treated with 1 μg/ml HIV-1 Tat; for Axonogenesis in the presence of Tat-activated microglia: compound 100 nM, FIG. 1 arrows. On the procedure: FIG. 2 is a graph illustrating the quantification of axon elimination in the presence of HIV tat and certain inhibitors including compounds of the present disclosure. FIG. 3 is a graph illustrating the quantification of axon length in the presence of HIV tat and certain inhibitors including compounds of the present disclosure. Neuroprotection from HIV-1 Tat: E18 primary hippocampal neurons were plated in microfluidic chambers for 7 days in vitro (DIV). These chambers contain a cell body compartment contiguous with a series of 10 um wide, 3 um high, 400 um long microgrooves through which axons grow into a second compartment, fluidically isolated by a hydrostatic pressure gradient. […] Chambers that were exposed to BV-2 microglia treated with Tat alone had almost their entire axonal field destroyed (FIG. 1, brightfield image). […] FIGS. 2 and 3 show quantifications of axon elimination in the presence of HIV tat and Compounds 169, 67, 68 and 175.

Data set [2] addresses T1, diverse set of kinases (Homo sapiens, UniProt O15111).
T1 construct: IC50 IKKa; other: kinase IKKa
T1 sequence (O15111 1-745): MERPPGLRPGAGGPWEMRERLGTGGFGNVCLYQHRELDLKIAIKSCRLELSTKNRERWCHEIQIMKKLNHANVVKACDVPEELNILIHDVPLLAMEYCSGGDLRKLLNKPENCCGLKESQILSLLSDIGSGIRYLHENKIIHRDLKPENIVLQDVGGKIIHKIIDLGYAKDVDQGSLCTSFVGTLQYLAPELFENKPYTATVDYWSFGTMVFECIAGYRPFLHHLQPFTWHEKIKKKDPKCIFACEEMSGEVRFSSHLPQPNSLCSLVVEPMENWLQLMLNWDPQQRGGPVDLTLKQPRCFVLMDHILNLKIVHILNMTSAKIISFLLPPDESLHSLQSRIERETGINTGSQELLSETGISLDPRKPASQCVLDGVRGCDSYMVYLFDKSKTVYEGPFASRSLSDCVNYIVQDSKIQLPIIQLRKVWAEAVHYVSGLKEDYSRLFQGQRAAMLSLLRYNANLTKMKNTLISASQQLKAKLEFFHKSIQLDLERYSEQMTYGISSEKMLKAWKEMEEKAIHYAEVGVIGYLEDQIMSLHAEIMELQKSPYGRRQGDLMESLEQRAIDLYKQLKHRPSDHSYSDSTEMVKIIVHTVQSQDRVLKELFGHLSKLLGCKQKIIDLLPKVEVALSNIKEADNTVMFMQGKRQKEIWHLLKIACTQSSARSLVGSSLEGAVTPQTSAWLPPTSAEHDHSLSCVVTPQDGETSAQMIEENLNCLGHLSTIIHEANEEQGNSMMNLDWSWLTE
The experiment in a line: Protein kinase selectivity: IC50 against a diverse set of kinases, compared with URMC-099. The settings on record: kinase IKKa. It counts as biochemical. An excerpt: (§1) Protein Kinase Selectivity: MLK-3 inhibitors previously reported in the literature are somewhat promiscuous and inhibit a large number of serine and threonine protein kinases. Compounds of the present invention that show potent inhibition on MLK-3 are very specific for MLK family kinases. […] Journal of Medicinal Chemistry, 2013.

The target in data set [3] is T2, diverse set of kinases (Homo sapiens, UniProt O14920).
T2 construct: IC50 IKKb; other: kinase IKKb
T2 sequence (O14920 1-756): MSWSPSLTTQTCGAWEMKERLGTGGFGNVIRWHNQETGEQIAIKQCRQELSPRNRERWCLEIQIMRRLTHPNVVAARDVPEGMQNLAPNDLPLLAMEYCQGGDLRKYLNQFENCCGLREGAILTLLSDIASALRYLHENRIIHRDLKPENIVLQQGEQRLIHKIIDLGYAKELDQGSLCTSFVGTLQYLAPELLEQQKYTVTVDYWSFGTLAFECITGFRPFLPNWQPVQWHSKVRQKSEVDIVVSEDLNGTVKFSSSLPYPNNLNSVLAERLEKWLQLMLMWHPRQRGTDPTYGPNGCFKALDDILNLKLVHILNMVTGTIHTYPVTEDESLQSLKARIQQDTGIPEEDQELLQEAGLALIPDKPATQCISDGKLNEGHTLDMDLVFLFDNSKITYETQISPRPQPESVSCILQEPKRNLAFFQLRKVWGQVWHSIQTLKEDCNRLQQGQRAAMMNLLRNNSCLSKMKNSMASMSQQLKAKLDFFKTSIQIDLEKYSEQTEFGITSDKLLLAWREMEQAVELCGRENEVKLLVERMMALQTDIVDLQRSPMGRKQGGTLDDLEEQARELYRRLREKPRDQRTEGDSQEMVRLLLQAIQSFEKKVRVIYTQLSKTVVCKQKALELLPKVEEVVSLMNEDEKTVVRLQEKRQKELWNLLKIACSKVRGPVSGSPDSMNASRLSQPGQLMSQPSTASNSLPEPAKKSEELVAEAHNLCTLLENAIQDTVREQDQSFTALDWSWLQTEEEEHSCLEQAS
The data set is described as above. It counts as biochemical. The settings on record: kinase IKKb.
Excerpt: as §1

The target in data set [4] is T3, diverse set of kinases (Homo sapiens, UniProt P24941).
T3 construct: IC50 CDK2; other: kinase CDK2
The description is as above. It counts as biochemical. The settings on record: kinase CDK2.
Excerpt: as §1

In data set [5] the target is diverse set of kinases (Homo sapiens, UniProt P00519, T315I). The data set is described as above. It counts as biochemical. The settings on record: kinase ABL1, read-out: IC50 ABL1(T31SI).
Excerpt: as §1

The target of data set [6] is T4, diverse set of kinases (Homo sapiens, UniProt P06213).
T4 construct: IC50 IR; other: kinase IR
T4 sequence (P06213 whole entry): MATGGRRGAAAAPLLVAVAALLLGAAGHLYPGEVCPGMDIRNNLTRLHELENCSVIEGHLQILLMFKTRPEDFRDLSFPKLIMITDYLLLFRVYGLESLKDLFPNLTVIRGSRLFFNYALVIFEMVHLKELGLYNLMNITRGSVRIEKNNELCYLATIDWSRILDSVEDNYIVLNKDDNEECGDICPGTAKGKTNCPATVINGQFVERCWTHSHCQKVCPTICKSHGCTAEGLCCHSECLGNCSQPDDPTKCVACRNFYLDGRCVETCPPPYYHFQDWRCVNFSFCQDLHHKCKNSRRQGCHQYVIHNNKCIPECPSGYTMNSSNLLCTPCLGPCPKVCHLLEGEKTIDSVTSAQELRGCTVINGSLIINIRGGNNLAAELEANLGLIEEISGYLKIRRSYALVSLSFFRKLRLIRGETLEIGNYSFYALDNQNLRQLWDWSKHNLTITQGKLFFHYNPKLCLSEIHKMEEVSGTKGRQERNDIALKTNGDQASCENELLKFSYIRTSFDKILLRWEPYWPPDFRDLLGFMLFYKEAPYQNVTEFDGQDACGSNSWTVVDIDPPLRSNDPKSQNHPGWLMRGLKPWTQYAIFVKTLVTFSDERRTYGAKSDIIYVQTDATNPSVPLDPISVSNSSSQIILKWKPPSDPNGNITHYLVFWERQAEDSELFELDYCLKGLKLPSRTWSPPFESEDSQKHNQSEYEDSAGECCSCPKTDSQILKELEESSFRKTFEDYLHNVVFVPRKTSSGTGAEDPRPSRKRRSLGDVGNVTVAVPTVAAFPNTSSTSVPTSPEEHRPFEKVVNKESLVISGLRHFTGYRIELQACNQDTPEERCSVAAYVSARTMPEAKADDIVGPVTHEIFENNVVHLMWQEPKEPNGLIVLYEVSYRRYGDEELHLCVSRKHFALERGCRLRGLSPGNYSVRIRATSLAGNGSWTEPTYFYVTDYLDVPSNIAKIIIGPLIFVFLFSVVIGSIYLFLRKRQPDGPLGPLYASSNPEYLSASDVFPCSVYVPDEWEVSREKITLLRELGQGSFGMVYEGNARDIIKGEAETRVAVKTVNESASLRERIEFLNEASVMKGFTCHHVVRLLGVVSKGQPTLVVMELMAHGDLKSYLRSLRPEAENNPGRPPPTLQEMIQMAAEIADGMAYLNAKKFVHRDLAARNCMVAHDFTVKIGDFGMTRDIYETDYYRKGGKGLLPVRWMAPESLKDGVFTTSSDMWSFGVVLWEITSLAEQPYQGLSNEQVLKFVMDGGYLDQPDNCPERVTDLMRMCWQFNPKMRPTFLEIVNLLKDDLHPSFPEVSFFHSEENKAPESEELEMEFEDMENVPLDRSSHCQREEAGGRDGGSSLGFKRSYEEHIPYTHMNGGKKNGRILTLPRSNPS
Described as above. The settings on record: kinase IR. It counts as biochemical.
Excerpt: as §1

For a further data set, the target named is MLK-3 (Homo sapiens, UniProt Q16584). Description: Biochemical assay for the inhibition of kinase activity for MLK-3 (33P-ATP, HOTSPOT filter binding). The settings on record: activated MLK-3 20 nM, ATP 50 μM, myelin basic protein 20 μM, 20 minutes room temperature. An outline of the steps: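 Activated MLK-3 (20 nM) with myelin basic protein (20 μM) in 20 mM Hepes pH 7.5, MgCl2, EGTA, Brij35, BSA, Na3VO4, DTT, 1% DMSO. Started with 33P-ATP at 50 μM ATP, 20 min at room temperature; % activity by HOTSPOT filter binding.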
MLK-3, sequence (Q16584 whole entry): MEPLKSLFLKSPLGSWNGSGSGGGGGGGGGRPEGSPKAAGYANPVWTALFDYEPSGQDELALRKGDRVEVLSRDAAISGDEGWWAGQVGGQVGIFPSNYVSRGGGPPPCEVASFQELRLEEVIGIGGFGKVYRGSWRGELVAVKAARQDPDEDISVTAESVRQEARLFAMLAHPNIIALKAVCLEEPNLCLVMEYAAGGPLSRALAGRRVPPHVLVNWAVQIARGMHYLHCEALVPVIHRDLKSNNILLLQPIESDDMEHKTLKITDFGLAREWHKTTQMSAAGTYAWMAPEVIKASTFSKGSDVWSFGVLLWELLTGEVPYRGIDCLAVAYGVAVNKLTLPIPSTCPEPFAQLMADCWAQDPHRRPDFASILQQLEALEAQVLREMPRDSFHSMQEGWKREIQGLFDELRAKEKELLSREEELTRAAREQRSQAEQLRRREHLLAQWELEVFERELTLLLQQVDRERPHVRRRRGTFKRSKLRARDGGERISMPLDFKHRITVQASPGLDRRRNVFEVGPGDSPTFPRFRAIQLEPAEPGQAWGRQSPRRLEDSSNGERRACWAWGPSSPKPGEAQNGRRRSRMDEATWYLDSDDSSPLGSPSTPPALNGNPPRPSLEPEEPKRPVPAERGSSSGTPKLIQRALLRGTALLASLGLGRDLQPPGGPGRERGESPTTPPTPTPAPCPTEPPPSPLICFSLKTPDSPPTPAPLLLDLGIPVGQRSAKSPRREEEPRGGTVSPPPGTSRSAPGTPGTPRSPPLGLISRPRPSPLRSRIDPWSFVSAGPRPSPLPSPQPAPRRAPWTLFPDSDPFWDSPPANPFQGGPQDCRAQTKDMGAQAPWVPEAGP

The nature of data set [7]: Blood brain barrier penetration: standard murine pharmacokinetic model, plasma and brain concentrations. It counts as in vivo. The settings on record: mouse; brain concentration 3 hrs after single IV injection 10 mg/kg, CL57 BL/6 mice; read-out: Cbrain 3 hrs. The text has this: Compounds disclosed herein may be evaluated in pharmacokinetic assays and models to determine absorption, distribution, metabolism, and excretion parameters. The choice and tailoring of in vitro and ex vivo assays and in vivo models will vary according to the route of administration/formulation, indication under study, properties of test compounds, etc., as well as according to such factors as costs, availability of technology and resources, etc. Such parameters are well known in the fields of pharmacology and drug development. It is within the capacity of one skilled in the art to design and carry out, such work, or to outsource it to a capable third party.
Several compounds disclosed herein were evaluated in a standard murine pharmacokinetic model. […] For ease of analysis compounds were dissolved in 5% DMSO, 40% PEG400, and […] to yield a nominal concentration of 2 mg/mL for intravenous administration. Compounds were administered via a single intravenous (IV) injection in CL57 BL/6 mice at 10 mg/kg in DMSO/PEG400/Saline solution. Three mice in each group were used for blood and brain collection at each time point. Blood samples (300 μL) were collected via the retro-orbital vein predose and at 30, 60 and 180 minutes postdose. Blood samples were placed into tubes containing sodium heparin and centrifuged under refrigerated conditions at 8000 rpm for 6 minutes to separate plasma from the samples. The brain of each animal was collected after the final blood collection. The whole tissue was harvested, excised and rinsed by saline, dried by filter paper, and then placed into one tube per tissue per animal. All samples were stored at −20° C. until bioanalysis. Compound concentrations in plasma and brain homogenate were determined using a high performance liquid chromatography/mass spectrometry (HPLC/MS/MS) methods.

The conditions of data set [8]: mice, Goodfellow et al 2013; cited from earlier work.

We go through nine compounds from patent publication US9370515B2, “Mixed lineage kinase inhibitors and method of treatments” (CALIFIA BIO, INC., priority 2013, dated 2016).

Entries after “also recorded” stand apart in the source; their conditions may differ. Read-outs that look alike come from different tables or passages of the source.

`CN1CCN(Cc2ccc(-c3cnc4[nH]cc(-c5ccc6[nH]ccc6c5)c4c3)cc2)CC1` [URMC-099, reference compound]: the “Protection of the axon field” value in data set [1] (test compounds 100 nM, 18 hours) is “protected the axon field”. In addition, the IC50 against diverse set of kinases [2] worked out at 0.591 µM; against diverse set of kinases [3] it was 0.257 µM; against diverse set of kinases [4], 1.18 µM; on diverse set of kinases [5] (read-out: IC50 ABL1), 0.003 µM; against diverse set of kinases [6], 0.2 µM.
On to `COc1cccc2cc(-c3cnc4ccc(N[C@H]5CC[C@H](O)CC5)nn34)sc12` [Compound 170, trans-4-(3-(7-methoxybenzo[b]thiophen-2-yl)imidazo[1,2-b]pyridazin-6-ylamino)cyclohexanol], for which the IC50 at MLK-3 is less than 0.1 µM; against diverse set of kinases [2], greater than 10 µM; at diverse set of kinases [3] it was greater than 10 µM; against diverse set of kinases [4], greater than 10 µM; on diverse set of kinases [5], greater than 10 µM; at diverse set of kinases [6], greater than 10 µM.
In the case of `COc1cc2cc(-c3cnc4ccc(N[C@H]5CC[C@H](O)CC5)nn34)sc2cc1OC` [Compound 169, trans-4-(3-(5,6-dimethoxybenzo[b]thiophen-2-yl)imidazo[1,2-b]pyridazin-6-ylamino)cyclohexanol], the IC50 on MLK-3 was less than 0.1 µM; on diverse set of kinases [2], greater than 10 µM; against diverse set of kinases [3] it was greater than 10 µM; on diverse set of kinases [4] it was 8.26 µM; on diverse set of kinases [5], greater than 10 µM; against diverse set of kinases [6] it was greater than 10 µM.
Consider `COc1ccc(Nc2ccc3ncc(-c4cc5cccc(OC)c5s4)n3n2)cc1OC` [Compound 68, 3-(7-methoxybenzo[b]thiophen-2-yl)-N-(3,4-dimethoxyphenyl)imidazo[1,2-b]pyridazin-6-amine], for which the “Axonogenesis in the presence of Tat-activated microglia” value in [1] (listed as Compound 68) is reported as “continued axonogenesis”; in data set [1] (listed as compound 68), “promoted continued axonogenesis”. The half-maximal inhibitory concentration (IC50) on MLK-3 was less than 0.1 µM; against diverse set of kinases [2], greater than 10 µM; at diverse set of kinases [3] it was greater than 10 µM; against diverse set of kinases [4], greater than 10 µM; at diverse set of kinases [5] it was greater than 10 µM; at diverse set of kinases [6], greater than 10 µM. The concentration at 3 h in [7] stood at 1550 ng/g.
For the compound `O[C@H]1CC[C@H](Nc2ccc3ncc(-c4cc5ccccc5s4)n3n2)CC1` [Compound 105, trans-4-(3-(benzo[b]thiophen-2-yl)imidazo[1,2-b]pyridazin-6-ylamino)cyclohexanol], the concentration for half-maximal inhibition (IC50) on MLK-3 was 0.1 to 0.5 µM; at diverse set of kinases [2] it was greater than 10 µM; against diverse set of kinases [3] it was greater than 10 µM; at diverse set of kinases [4], 1.03 µM; on diverse set of kinases [5], greater than 10 µM; at diverse set of kinases [6] it was greater than 10 µM.
With `COc1ccc(Nc2ccc3ncc(-c4cc5ccccc5s4)n3n2)cc1OC` [Compound 12, 3-(benzo[b]thiophen-2-yl)-N-(3,4-dimethoxyphenyl)imidazo[1,2-b]pyridazin-6-amine], the IC50 on MLK-3 was 0.1 to 0.5 µM; against diverse set of kinases [2], greater than 10 µM; against diverse set of kinases [3], greater than 10 µM; at diverse set of kinases [4], 19.4 µM; on diverse set of kinases [5], greater than 10 µM; at diverse set of kinases [6], greater than 10 µM. Besides, the concentration at 3 h in data set [7] is 1280 ng/g.
Regarding `COc1cc2cc(-c3cnc4ccc(N(C)[C@H]5CC[C@H](OC)CC5)nn34)sc2cc1OC` [Compound 175, 3-(5,6-dimethoxybenzo[b]thiophen-2-yl)-N-(trans-4-methoxycyclohexyl)-N-methylimidazo[1,2-b]pyridazin-6-amine], the IC50 on MLK-3 is less than 0.1 µM. For the same compound, in [7], the concentration at 3 h is 1880 ng/g.
In the case of `COc1ccc(Nc2ccc3ncc(-c4cc5cc(OC)c(OC)cc5s4)n3n2)cc1OC` [Compound 67, 3-(5,6-dimethoxybenzo[b]thiophen-2-yl)-N-(3,4-dimethoxyphenyl)imidazo[1,2-b]pyridazin-6-amine], the IC50 on MLK-3 was less than 0.1 µM; on diverse set of kinases [2], greater than 10 µM; against diverse set of kinases [3], greater than 10 µM; on diverse set of kinases [4], greater than 10 µM; at diverse set of kinases [5], greater than 10 µM; on diverse set of kinases [6], greater than 10 µM. Further, the concentration at 3 h in data set [7] was found to be 566 ng/g.
In the case of `CCSCc1ccc2c(c1)c1c3c(c4c5cc(CSCC)ccc5n5c4c1n2[C@H]1C[C@](O)(C(=O)OC)[C@]5(C)O1)CNC3=O` [CEP-1347], in data set [8], the “CNS / blood brain barrier penetration” value was “very poor blood brain barrier penetration; also recorded: poor CNS penetration”.

By IC50 is commonly meant the concentration needed to halve the response being measured.
